Measurements taken from PMC8557474, “Reliability of the AR-CALUX®In Vitro Method Used to Detect Chemicals with (Anti)Androgen Activity: Results of an International Ring Trial” (Toxicological Sciences, 2021).
Values after ≈ are worked out from the molar mass of the structure shown. Starred links: 1 amine or outer side, 2 acyl side, 3 side chain; linkers in the order of their positions; H or OH if unused. Positions of bridges follow the written chain, without caps; N, C: chain ends. Non-standard residues stand in square brackets, D forms with d. Residues, ends and D or L forms follow the SMILES beside them. Chains are numbered I, II in the order given. Actinocin(9to1) = Cc1c2oc3c(C)ccc(C(=O)[*:1])c3nc-2c(C(=O)[*:2])c(N)c1=O; NMeV = CN[C@H](C(=O)O)C(C)C; Sar = CNCC(=O)O

Columns and labels:
[1] = Solubility testing (visual inspection, centrifugation, microscopy)
Method: It details the cell cultivation and seeding procedure, the preparation of the reference, control and test chemicals, the procedure for agonist testing and antagonist testing, prescreen runs, and comprehensive runs, as well as data analysis and data interpretation. This SOP also includes references to the SOPs for solubility testing and cytotoxicity testing. […] Solubility was tested both in the solvent and in media under similar circumstances as would be required during the (ant)agonist testing. The initial concentration to be tested was prescribed at 50 mg/ml. Starting from the highest soluble concentration, cytotoxicity was determined with an LDH assay. Visual checking of cytotoxicity in all wells of the plate was however also required for each run.
This included an investigation by heating, centrifugation, microscopy, and visual checking. […] For the purpose of the validation study, the labs were requested to start from 50 mg/ml as the maximal stock concentration to be tested.

[2] = target: T1, human androgen receptor (hAR) (Homo sapiens, UniProt P10275); experiment: cell-based; format: cell-based; details: for Agonist classification per run, Lab 1: Lab 1, 3 runs; for Agonist classification per run, Lab 2: Lab 2, 3 runs; for Agonist classification per run, Lab 3: Lab 3, 3 runs; for Agonist classification per run, Lab 4: Lab 4, 3 runs
T1 construct: host or cells: U2-OS human osteosarcoma cells (ATCC HTB 96), stably transfected (AR-CALUX cell line)
T1 sequence (P10275 1-920): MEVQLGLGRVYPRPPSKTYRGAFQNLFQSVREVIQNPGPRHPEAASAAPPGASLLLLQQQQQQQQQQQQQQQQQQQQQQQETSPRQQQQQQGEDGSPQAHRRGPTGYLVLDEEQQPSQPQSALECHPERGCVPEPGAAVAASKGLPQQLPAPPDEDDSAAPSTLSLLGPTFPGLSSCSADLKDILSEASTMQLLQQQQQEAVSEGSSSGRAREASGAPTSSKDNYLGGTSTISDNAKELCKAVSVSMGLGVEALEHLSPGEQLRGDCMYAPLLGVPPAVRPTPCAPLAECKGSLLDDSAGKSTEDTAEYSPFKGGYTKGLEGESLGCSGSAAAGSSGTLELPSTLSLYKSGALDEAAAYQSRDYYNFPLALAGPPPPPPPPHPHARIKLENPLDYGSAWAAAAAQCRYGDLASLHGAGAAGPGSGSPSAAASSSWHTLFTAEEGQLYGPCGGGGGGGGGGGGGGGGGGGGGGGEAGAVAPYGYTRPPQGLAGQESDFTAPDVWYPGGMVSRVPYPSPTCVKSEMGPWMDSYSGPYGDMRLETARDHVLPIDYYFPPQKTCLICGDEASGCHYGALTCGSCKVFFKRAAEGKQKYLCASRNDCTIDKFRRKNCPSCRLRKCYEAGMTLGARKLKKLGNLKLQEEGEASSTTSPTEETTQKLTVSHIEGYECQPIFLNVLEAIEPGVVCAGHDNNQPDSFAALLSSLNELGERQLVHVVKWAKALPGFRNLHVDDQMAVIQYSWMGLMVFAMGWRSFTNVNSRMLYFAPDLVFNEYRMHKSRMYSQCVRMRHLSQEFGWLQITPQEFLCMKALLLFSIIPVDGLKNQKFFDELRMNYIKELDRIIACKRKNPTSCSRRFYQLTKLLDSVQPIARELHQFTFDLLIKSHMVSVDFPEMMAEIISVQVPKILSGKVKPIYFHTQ
Excerpt: (§1) The AR-CALUX® cell line was created by BioDetection Systems (BDS). It can be purchased from BDS with a license (https://www.biodetectionsystems.com). The human osteosarcoma cell line U2-OS (ATCC HTB 96) was transfected with 2 constructs: pSG5-neo-hAR carrying the cDNA of a human androgen receptor (hAR) under a constitutive promoter, and, a luciferase reporter gene which is preceded by a triple tandem of AREs in front of a TATA box (3x ARE Luc). […] The AR-CALUX® cell line was obtained from the test method developer BDS. EURL ECVAM prepared a master cell bank and a large working cell bank which were tested for the absence of mycoplasma, bacteria, fungi, and yeast and for the absence of Hepatitis B and C and HIV. In addition, to verifying the authenticity of the cell line, Short Tandem Repeat (STR) profiling was carried out to confirm the test system to be U2-OS cells. […] The laboratories were requested, at the end of each part of the study (Parts 1, 2, and 3), to perform a mycoplasma test of their choice. Additional aliquots were sent to EURL ECVAM for a reanalysis of authenticity.
(§2) Subsequently, the test chemical was assessed with a prescreen run (dilution steps of 10) and simultaneously with the quantitative cytotoxicity test to determine (1) cytotoxic concentrations, (2) the response, and (3) the appropriate dose range to be tested. […] The cytotoxicity test was performed once more. Test chemicals were diluted in media and consisted of 8 serial dilutions. Each dilution was tested in triplicate.
(§3) Each experiment (run) was comprised of a maximum of 6 plates. The first plate would contain 8 serial dilutions of the reference chemical DHT (for agonism) or Flutamide (for antagonism), while the positive and negative controls were added at fixed concentrations. In addition, a solvent control was added (medium without the chemical but with DMSO 0.1%).
A. Positive when the relative induction (Yc) of the test item is ≥ 10% (REF RPC10) for two or more consecutive concentrations.

[3] = target: T1, human androgen receptor (hAR); experiment: AR-CALUX antagonist assay (medium spiked with DHT at EC50); format: cell-based; details: for Antagonist classification per run, Lab 1: Lab 1, 3 runs; for Antagonist classification per run, Lab 2: Lab 2, 3 runs; for Antagonist classification per run, Lab 3: Lab 3, 3 runs; for Antagonist classification per run, Lab 4: Lab 4, 3 runs; for AR-CALUX Antagonist classification: mean of classifications, specificity control taken into account
Excerpt: as §1, §2, §3
(§4) For the antagonist assay, the medium was supplemented with DHT at EC50 concentration (standard assay). […] Each antagonist assay was accompanied by a specificity control test carried out on the same plate.
A. Positive (competitive antagonist) when the relative induction (Yc) of the test item is ≤ 80% (REF RPC80) for two or more consecutive concentrations and […]

[4] = target: T1, human androgen receptor (hAR); format: cell-based; details: for Classification Run1: run 1; for Classification Run3: run 3; for Shift Direction of specificity control dose response: vs standard antagonist dose response
Excerpt: as §4
the square of the correlation coefficient (R^2) is ≤ 0.9 between the relative induction of the test item (Yc) and its specificity control (Sc)

## [N-]=[N+]=[N-].[Na+] [Sodium azide]
[1]; DMSO, Lab 1, highest tested 50 mg/ml
  Solubility in DMSO, Lab 1: 15000 µg/mL
[1]; DMSO, Lab 2, highest tested 50 mg/ml
  Solubility in DMSO, Lab 2: 15000 µg/mL
[1]; DMSO, Lab 3, highest tested 50 mg/ml
  Solubility in DMSO, Lab 3: 15000 µg/mL
[1]; DMSO, Lab 4, highest tested 50 mg/ml
  Solubility in DMSO, Lab 4: 15000 µg/mL
[1]; assay medium, Lab 1
  Solubility in medium, Lab 1: 15 µg/mL
[1]; assay medium, Lab 2
  Solubility in medium, Lab 2: 15 µg/mL
[1]; assay medium, Lab 3
  Solubility in medium, Lab 3: 15 µg/mL
[1]; assay medium, Lab 4
  Solubility in medium, Lab 4: 5 µg/mL
[2]
  Agonist classification per run, Lab 1: N N N
  Agonist classification per run, Lab 2: N N N
  Agonist classification per run, Lab 3: N N N
  Agonist classification per run, Lab 4: N N N
[3]
  Antagonist classification per run, Lab 1: N N N
  Antagonist classification per run, Lab 2: N N N
  Antagonist classification per run, Lab 3: N N N
  Antagonist classification per run, Lab 4: N N N

## CCN(CC)C(=S)SSC(=S)N(CC)CC [Disulfiram]
[1]; aqueous buffer, kinetic from dmso stock, Solubility in medium, Lab 1, assay medium, Lab 1
  solubility: 5 µg/mL (≈ 16.9 µM)
[1]; aqueous buffer, kinetic from dmso stock, Solubility in medium, Lab 2, assay medium, Lab 2
  solubility: 15 µg/mL (≈ 50.6 µM)
[1]; aqueous buffer, kinetic from dmso stock, Solubility in medium, Lab 3, assay medium, Lab 3
  solubility: 15 µg/mL (≈ 50.6 µM)
[1]; aqueous buffer, kinetic from dmso stock, Solubility in medium, Lab 4, assay medium, Lab 4
  solubility: 15 µg/mL (≈ 50.6 µM)
[1]; organic solvent or mixture, thermodynamic from solid, Solubility in DMSO, Lab 1, DMSO, Lab 1, highest tested 50 mg/ml
  solubility: > 50000 µg/mL
[1]; organic solvent or mixture, thermodynamic from solid, Solubility in DMSO, Lab 2, DMSO, Lab 2, highest tested 50 mg/ml
  solubility: > 50000 µg/mL
[1]; organic solvent or mixture, thermodynamic from solid, Solubility in DMSO, Lab 3, DMSO, Lab 3, highest tested 50 mg/ml
  solubility: > 50000 µg/mL
[1]; organic solvent or mixture, thermodynamic from solid, Solubility in DMSO, Lab 4, DMSO, Lab 4, highest tested 50 mg/ml
  solubility: > 50000 µg/mL
[2]
  Agonist classification per run, Lab 1: N N N
  Agonist classification per run, Lab 2: N N N
  Agonist classification per run, Lab 3: N N N
  Agonist classification per run, Lab 4: N N N
[3]
  Antagonist classification per run, Lab 1: N N N
  Antagonist classification per run, Lab 2: N N N
  Antagonist classification per run, Lab 3: N N N
  Antagonist classification per run, Lab 4: N N N

## C[C@]12CC[C@@H]3c4ccc(O)cc4C[C@@H](CCCCCCCCC[S+]([O-])CCCC(F)(F)C(F)(F)F)[C@H]3[C@@H]1CC[C@@H]2O (stereo partly drawn) [Fulvestrant]
[4]
  Scn (normalized dose response for the specificity control): >80%
  Shift Direction of specificity control dose response: Right
[4]; antagonist
  Classification Run1: N(FP)
  Classification Run3: N(FP)b
[3]
  AR-CALUX antagonist result in words: false positive
  AR-CALUX Antagonist classification: N(FP)

## Cc1c2oc3c(C)ccc(C(=O)N[C@@H]4C(=O)N[C@H](C(C)C)C(=O)N5CCC[C@H]5C(=O)N(C)CC(=O)N(C)[C@@H](C(C)C)C(=O)O[C@@H]4C)c3nc-2c(C(=O)N[C@@H]2C(=O)N[C@H](C(C)C)C(=O)N3CCC[C@H]3C(=O)N(C)CC(=O)N(C)[C@@H](C(C)C)C(=O)O[C@@H]2C)c(N)c1=O [Actinomycin D] (I: T[dV]P[Sar][NMeV] / II: T[dV]P[Sar][NMeV]; ester I:1-I:C, II:1-II:C; linker I:N-II:N via Actinocin(9to1))
[4]
  Scn (normalized dose response for the specificity control): >80%
  Shift Direction of specificity control dose response: Right
[4]; antagonist
  Classification Run1: N
  Classification Run3: N(FP)
[4]; antagonist, run 2
  Classification Run2: N(FP)
[3]
  AR-CALUX antagonist result in words: false positive response
  AR-CALUX Antagonist classification: N(FP)
